Data on 8 molecules can be found in PubChem BioAssay (NCI).

Values joined by “and” are separate entries in the source; they are usually repeats but may differ in a detail not shown here. Equal entries are not always repeated.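 These data come from cells grown in 96-well plates and exposed to compound for 48 hours at five concentrations. The concentration for 50% growth inhibition is given as GI50. TGI is the concentration that stops growth completely.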

Holding throughout (assay): inhibition of tumour cell growth, NCI panel, 48 h
The test system of assay [1] is UO-31 renal.
In assay [2] the test system is RPMI-8226 leukemia.
Assay [3] deals with SNB-75 CNS.
Assay [4] has as its system UACC-257 melanoma.
Assay [5] concerns SR leukemia.
Assay [6] has as its system KM12 colon.
For assay [7], the system named is MOLT-4 leukemia.
Assay [8] deals with HCT-116 colon.
In assay [9] the test system is OVCAR-5 ovarian.
For assay [10], the system named is HCT-15 colon.

For the molecule `COc1ccc(Nc2nccc(N3CCN(c4c5ccc(Cl)cc5nc5ccc(OC)cc45)CC3)n2)cc1`, the GI50 in [1] is 8.26 µM; in assay [2], 3.73 µM; in [3], 5.61 µM; in [4], above 100 µM; in assay [5], 2.92 µM; in assay [6] it was 6.96 µM. The GI50 was 3.05 µM in assay [7], 3.87 µM in [8], above 100 µM in assay [9] and 4.48 µM in [10]. For the same molecule, the TGI in assay [1] was above 100 µM; in [2] it was 28.1 µM; in assay [3] it was 46.7 µM; in [4] it was above 100 µM; in assay [5], above 100 µM; in [6], above 100 µM. Moreover, the TGI in assay [7], in assay [8], in assay [9] and in [10] was above 100 µM throughout.

In the case of `CCCCCCCCCCCC1CC(=O)NCCCN(C)CCCCN(C)CCCN1C` (stereo not drawn), the TGI in assay [1] was found to be 3.11 µM; in assay [2], 4.09 µM; in assay [3] it was 2.99 µM; in [4], 3.06 µM; in assay [5] it was 0.605 µM; in assay [6] it was 2.96 µM. The TGI in assay [7] was determined as 7.73 µM; in assay [8], 2.89 µM; in [9] it was 3.3 µM; in [10], 3 µM.

For `COc1ccc(C(=O)c2nc3ccccc3n2CC(=O)c2ccc(Cl)cc2)cc1`, the GI50 in assay [1] is 7.04 µM; in [2] it was 1.71 µM; in assay [3] it was 2.75 µM; in [4] it was above 23.6 µM; in assay [5] it was 0.569 µM; in assay [6], 1.59 µM. In addition, the GI50 in [7] is 2.09 µM; in [8], 3.15 µM; in assay [9] it was above 82.3 µM; in assay [10] it was 2 µM. In addition, the TGI in assay [1] is above 100 µM; in assay [2] it was above 23.9 µM; in [3], above 100 µM; in [4], above 100 µM; in assay [6], above 100 µM; in [7] it was above 100 µM. The TGI in [8], in [9] and in [10] was above 100 µM each time.

Consider `CC(C)[O-].CC(C)[O-].CN(CCN(C)Cc1cc(F)cc(F)c1[O-])Cc1cc(F)cc(F)c1[O-].[Ti+4]`, for which the GI50 in [1] was 0.977 µM; in [2], 0.882 µM; in assay [3] it was 0.517 µM; in [4] it was 1.15 µM; in assay [5], 0.512 µM; in assay [6] it was 0.907 µM. Also, the GI50 in assay [7] is 0.9 µM; in assay [8], 0.792 µM; in [9] it was 1.51 µM; in [10], 0.526 µM. The TGI in assay [1] amounted to 5.46 µM; in [2] it was 4.44 µM; in assay [3], 2.52 µM; in [4], 3.9 µM; in [6], 2.95 µM; in assay [7] it was 8.47 µM. Besides, the TGI in [8] worked out at 4.86 µM; in assay [9], 8.78 µM; in [10], 15.1 µM.

Turning to `COc1ccc(-c2c(C3=NCCCN3)nnn2-c2ccc([N+](=O)[O-])cc2)cc1`, the TGI in [1], in assay [2], in assay [3], in assay [4], in assay [5] and in assay [6] was above 100 µM each time. Moreover, the TGI in assay [7], in [8], in [9] and in [10] was above 100 µM throughout.

Regarding `O=C1c2ccccc2-c2c1c1c(NCCCO)nc3ccccc3c1n2Cc1ccccc1`, the GI50 in assay [1] is 24.6 µM; in [2], 14.3 µM; in assay [3] it was 20.7 µM; in assay [4], 41.3 µM; in assay [5], 6.04 µM; in [6] it was 31.3 µM. In addition, the GI50 was 5.94 µM in assay [7], 15.8 µM in [8], 18 µM in [9] and 37.5 µM in assay [10]. The TGI in assay [1] was 73.7 µM; in assay [2] it was 27.3 µM; in [3] it was 39.8 µM; in assay [4] it was above 100 µM; in [5], 24.1 µM; in assay [6], above 100 µM. Also, the TGI is 42.8 µM in [7], 35.1 µM in [8], 39.9 µM in assay [9] and above 100 µM in assay [10].

On to `Fc1ccc2nc(-c3cc(-c4ccc5c(c4)OCO5)n[nH]3)[nH]c2c1`, for which the GI50 in assay [1] was 2.5 µM; in assay [2], 1.17 µM; in assay [3], 2.8 µM; in assay [4] it was 8.91 µM; in assay [5], 3.58 µM; in assay [6] it was 2.49 µM. The GI50 in assay [7] is 2.56 µM; in assay [8], 3.51 µM; in assay [9] it was 35.5 µM; in assay [10] it was 3.27 µM. Moreover, the TGI is above 24 µM in [1]; 8.26 µM in [2]; 13.8 µM in [3]; above 100 µM in assay [4]; above 100 µM in assay [5]; above 32 µM in [6]. Further, the TGI was above 69.4 µM in [7], above 32.5 µM in [8], above 100 µM in assay [9] and above 42.4 µM in assay [10].

Turning to `CCOc1ccc(Nc2c3ccccc3nc3ccccc23)cc1`, the GI50 in assay [1] was 0.677 µM and 0.356 µM; in [2] it was 1.07 µM and 0.364 µM; in [3] it was 0.309 µM and 0.25 µM; in assay [4], 0.552 µM and 0.888 µM; in [5], 0.307 µM and 0.042 µM; in [6] it was 0.581 µM and 0.487 µM. The GI50 in assay [7] is 0.476 µM and 0.258 µM; in assay [8] it was 0.335 µM and 0.318 µM; in assay [9], 1.91 µM and 0.514 µM; in assay [10] it was 0.592 µM and 0.552 µM. Further, the TGI in [1] is 3.99 µM and 3.74 µM; in [2] it was 4.58 µM and 4.03 µM; in [3] it was 3.39 µM and 1.52 µM; in [4], 2.22 µM and 6.32 µM; in [5], 6.89 µM and 1.11 µM; in [6], 9.39 µM and 4.52 µM. The TGI is 5.59 µM and 1.27 µM in assay [7]; 1.32 µM and 2.81 µM in assay [8]; 18.3 µM and 13.2 µM in [9]; 3.18 µM in assay [10].
